In patent publication US20170000749A1, “Methods for Treating Cognitive Disorders Using Inhibitors of Histone Deacetylase” (Forum Pharmaceuticals, Inc., priority 2008, published 2017):
Read-outs that look alike come from different tables or passages of the source.

What was measured:
[1] = tested on: Drosophila Huntington's Disease model flies; assay: In Vivo Drosophila Fly Assay for Treatment of Huntington's Disease (automated climbing behavioral assay); set-up: species or system Drosophila melanogaster; details: for Speed 1 to 7 (concentration) 30 uM / Speed 1 to 7 (concentration) 100 uM / Speed 1 to 7 (concentration) 300 uM: effect size of early speed (days 1-7) vs DMSO-carrier control; for Speed 8 to 10 (concentration) 30 uM / Speed 8 to 10 (concentration) 100 uM / Speed 8 to 10 (concentration) 300 uM: effect size of late speed (days 8-10) vs DMSO-carrier control
Excerpt: The Drosophila Huntington's Disease assay used to screen compounds of the present disclosure followed that of WO 2007/002497, which is hereby incorporated by reference in its entirety.
Briefly, parental (model and driver) lines are maintained in sufficient quantities to provide virgins and males for assay crosses as well as perpetuating the lines. Disease model flies are maintained with the disease genes “silent”, functionally linked to a UAS enhancer element. The “driver” lines contain a GAL4 element under the control of a tissue-specific promoter. These are crossed together to generate the assay flies which have tissue-specific (i.e. CNS) expression of the disease gene(s).
Weekly assay crosses are set up with sufficient virgins and males to generate enough assay embryos for sorting. Approximately 50,000 males and 75,000 virgins are crossed in population cages. Embryos are collected for an eight hour window two days later. The embryos are then sorted onto 16 mm assay vials containing regular fly media and allowed to develop. Flies containing both the GAL4 driver element and the disease gene(s) are detected by the presence of GFP, a fluorescing protein. Approximately 10 assay flies eclose per vial, the optimal number for the behavioral assay. Once the flies eclose, they are transferred onto assay vials containing liquid Drosophila food. Similarly, control crosses are set up with virgins of the driver and males from a non-disease UAS line. Throughout fly production and the assay days, all flies are maintained at constant temperature and humidity, with preset light cycle, optimized for the particular lines and crosses.
Quality control (QC) for the parental lines is carried out weekly by collecting a sample of random male flies from each line. Single-fly PCR is carried out to ascertain the presence of the GAL4 or UAS element. If greater than 5% of the individuals lack the appropriate element, the assay cross is aborted. A second form of QC is also carried out to ensure that the GAL4 element is able to drive expression of a transgene. A sample of individual “driver” virgins is crossed to UAS-GFP males. Their progeny are visually checked for GFP expression in the appropriate tissues. Lack of GFP in greater than 4% of the crosses results in the assay being aborted.
Test compounds are weighed out and dissolved in DMSO at stock concentrations 100× what is desired in the assay and arrayed into 96-well master plates, including wells for DMSO-only controls and the positive control(s). A single well is reserved for a colored dye used to ensure proper orientation of compounds during drug dispensing and fly transfer. Replicate daughter plates for each day of the assay are stamped out. The plates are bar coded and stored at −20 C until used for the assay.
For a particular assay day, the plates are thawed and a robotic liquid handler is used to dilute the test compound into the liquid fly food and dispense the mixture into the assay vials. For Huntington Disease (HD) models, eight replicates per single treatment (one compound, one concentration) are dispensed. Fresh test compound treated media is made daily during an assay.
On the day the assay flies eclose (emerge from […]; assay Day 0) they are transferred to the test compound treated vials. On assay Day 1, the flies are transferred onto clean test compound treated vials one hour before assay time. They are then placed in the assay machine to acclimate to the appropriate climate conditions.
The assay machine is an environmentally-enclosed and controlled robot that can maintain user-set temperature and humidity. The machine can hold up to sixteen 96-vial racks in four quadrants, for a total of 1536 vials. There are four camera stations, which hold four vials each and a CCD camera for movie capture. […]

[2] = tested on: HDAC activity in primary mouse cortical cultures; assay: Whole-Cell Histone Deacetylase (HDAC) Inhibition Assay in Primary Mouse Cortical Cultures; format: cell-based; details: whole-cell (WC), mouse cortical neurons, read-out: HDAC Inhibition (IC50 μM) WC mouse cortical neurons
In short: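 Primary neocortical neurons from E17 Balb/C mouse embryos were plated at 50000 cells/well and treated at DIV9 with ten-point DMSO dilutions for 16-18 h at 37° C, in triplicate. BOC-Lys(Ac)-AMC substrate was then added for 1 h. Fluor de Lys developer containing 1 uM TSA produced a fluorophore, which was read.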

[3] = molecular target: one or more of HDAC-1, HDAC-2, HDAC-3, HDAC-4, HDAC-5, HDAC-6, HDAC-7, HDAC-8, HDAC-9, HDAC-10 and HDAC-11; assay: Inhibition of Histone Deacetylase Enzymatic Activity (Boc-Lys(Ac)-AMC substrate, Fluor-de-Lys developer); format: biochemical; details: read-out: HDAC Inhibition (IC50 μM) HDAC Enzyme
Protocol: The following protocol is used to assay the compounds of the disclosure.
The mixture is pre-incubated for 5 minutes at room temperature. The reaction is started by bringing the temperature to 37° C. and adding 16 μl substrate. Total reaction volume is 50 μl.
In the Tables 8, 9 and 10, A≦0.05 μM; 0.05 μM<B≦0.1 μM; 0.1 μM<C≦1 μM; and 1 μM<D≦10 μM.

IC50 ([2]; Table 10) [µM] | IC50 ([3]; Table 10) [µM] | Compound | Speed 1 to 7 (concentration) 30 uM [1] | Speed 1 to 7 (concentration) 100 uM [1] | Speed 1 to 7 (concentration) 300 uM [1] | Speed 8 to 10 (concentration) 30 uM [1] | Speed 8 to 10 (concentration) 100 uM [1] | Speed 8 to 10 (concentration) 300 uM [1] | also measured
1 to 5 | 0.1 to 1 | O=C(NO)c1ccc(CN2C(=O)c3ccccc3CCc3ccccc32)cc1 [N-hydroxy-4-((6-oxo-11,12-dihydrodibenzo[b,f]azocin-5(6H)-yl)methyl)benzamide] |  |  |  |  |  |  | 
< 1 | < 0.05 | O=C(NO)c1ccc(Cn2c(=O)c3ccccc3c3ccccc32)cc1 [N-hydroxy-4-((6-oxophenanthridin-5(6H)-yl)methyl)benzamide] |  |  |  |  |  |  | 
< 1 | < 0.05 | O=C(NO)c1ccc(CN2C(=O)c3ccccc3Oc3ccccc32)cc1 [N-hydroxy-4-((11-oxodibenzo[b,f][1,4]oxazepin-10(11H)-yl)methyl)benzamide] |  |  |  |  |  |  | 
< 1 | < 0.05 | O=C(CCCCCN1C(=O)c2ccccc2Oc2ccccc21)NO [N-hydroxy-6-(11-oxodibenzo[b,f][1,4]oxazepin-10(11H)-yl)hexanamide] |  |  |  |  |  |  | 
< 1 | < 0.05 | O=C(CCCCCCn1c(=O)c2ccccc2c2ccccc21)NO [N-hydroxy-7-(6-oxophenanthridin-5(6H)-yl)heptanamide] |  |  |  |  |  |  | 
< 1 | < 0.05 | O=C(CCCCCCN1C(=O)c2ccccc2Oc2ccccc21)NO [N-hydroxy-7-(11-oxodibenzo[b,f][1,4]oxazepin-10(11H)-yl)heptanamide] |  |  |  |  |  |  | 
< 1 | < 0.05 | O=C(CCCCCCN1C(=O)c2ccccc2Sc2ccccc21)NO [N-hydroxy-7-(11-oxodibenzo[b,f][1,4]thiazepin-10(11H)-yl)heptanamide] |  |  |  |  |  |  | 
5 to 15 | < 0.05 | O=C(CCCCCCOc1nc2ccccc2c2ccccc12)NO [N-hydroxy-7-(phenanthridin-6-yloxy)heptanamide] |  |  |  |  |  |  | 
1 to 5 | 0.05 to 0.1 | O=C(CCCCCCCN1C(=O)c2ccccc2Oc2ccccc21)NO [N-hydroxy-8-(11-oxodibenzo[b,f][1,4]oxazepin-10(11H)-yl)octanamide] |  |  |  |  |  |  | 
1 to 5 | 0.05 to 0.1 | O=C(NO)c1cnc(N2CCCN(C(=O)OCc3ccccc3)CC2)nc1 [benzyl 4-(5-(hydroxycarbamoyl)pyrimidin-2-yl)-1,4-diazepane-1-carboxylate] |  |  |  |  |  |  | 

Second part, the compound before the results:

Compound | IC50 ([2]; Table 10) [µM] | IC50 ([3]; Table 10) [µM] | Speed 1 to 7 (concentration) 30 uM [1] | Speed 1 to 7 (concentration) 100 uM [1] | Speed 1 to 7 (concentration) 300 uM [1] | Speed 8 to 10 (concentration) 30 uM [1] | Speed 8 to 10 (concentration) 100 uM [1] | Speed 8 to 10 (concentration) 300 uM [1] | also measured
O=C(NO)c1cnc(N2CC3CC2CN3c2cccc(C(F)(F)F)c2)nc1 (stereo not shown) |  |  | 0.02 | 0.48 | 0.506 | −0.14 | 0.3 | −0.112 | 
O=C(NO)c1cnc(N2CC3CC2CN3c2cccc(OC(F)(F)F)c2)nc1 (stereo not shown) |  |  | 0.05 | −0.01 | 0.68 | 0.15 | 0.16 | 0.35 | 
O=C(NO)c1cnc(N2CC3CC2CN3c2ccc3c(c2)OC(F)(F)O3)nc1 (stereo not shown) |  |  | 0.28 | 0.64 | 0.66 | 0.22 | 0.46 | 0.58 | 
O=C(NO)c1cnc(N2CC3CC2CN3c2cccc(SC(F)(F)F)c2)nc1 (stereo not shown) |  |  | 0.63 | 0.38 | 0.03 | 0.28 | 0.02 | −0.29 | 
O=C(NO)c1cnc(N2CC3CC2CN3c2cc(C(F)(F)F)ccn2)nc1 (stereo not shown) |  |  | 0.468 | 0.82 | 0.3 | 0.087 | 0.82 | 0.54 | 
O=C(NO)c1cnc(N2CC3CC2CN3c2cccc(C(F)(F)F)n2)nc1 (stereo not shown) |  |  | 0.781 | 0.549 | 0.411 | 0.291 | 0.376 | 0.471 | 
Cc1ccc(N2CC3CC2CN3c2ncc(C(=O)NO)cn2)cc1 (stereo not shown) |  |  | −0.007 | 0.046 | 0.829 | −0.134 | −0.369 | −0.107 | 
CC(C)OC(=O)N1CC2CC1CN2c1ncc(C(=O)NO)cn1 (stereo not shown) |  |  | 0.495 | 0.33 | −0.469 | 0.338 | 0.368 | 0.512 | 
Cc1cccc(N2CC3CC2CN3c2ncc(C(=O)NO)cn2)c1 (stereo not shown) |  |  | 0.493 | 0.588 | 0.412 | 0.036 | 0.359 | 0.439 | 
Cc1cccc(N2C[C@H]3C[C@@H]2CN3c2ccc(C(=O)NO)cc2)c1 [N-hydroxy-4-((1R,4R)-5-m-tolyl-2,5-diazabicyclo[2.2.1]heptan-2-yl)benzamide] |  |  |  |  |  |  |  |  | IC50 ([2]; Table 9): 1 to 5 µM; IC50 ([3]; Table 9): 0.1 to 1 µM
O=C(NO)c1ccc(N2C[C@@H]3C[C@H]2CN3c2cccc(C(F)(F)F)c2)cc1 [N-hydroxy-4-((1S,4S)-5-(3-(trifluoromethyl)phenyl)-2,5-diazabicyclo[2.2.1]heptan-2-yl)benzamide] |  |  |  |  |  |  |  |  | IC50 ([2]; Table 9): 1 to 5 µM; IC50 ([3]; Table 9): 0.1 to 1 µM
O=C(NO)c1ccc(N2C[C@@H]3C[C@H]2CN3c2cc(C(F)(F)F)ccn2)cc1 [N-hydroxy-4-((1S,4S)-5-(4-(trifluoromethyl)pyridin-2-yl)-2,5-diazabicyclo[2.2.1]heptan-2-yl)benzamide] |  |  |  |  |  |  |  |  | IC50 ([2]; Table 9): 1 to 5 µM; IC50 ([3]; Table 9): 0.1 to 1 µM
Cc1ccc(N2C[C@@H]3C[C@H]2CN3c2ccc(C(=O)NO)cc2)cc1 [N-hydroxy-4-((1S,4S)-5-p-tolyl-2,5-diazabicyclo[2.2.1]heptan-2-yl)benzamide] |  |  |  |  |  |  |  |  | IC50 ([2]; Table 9): 1 to 5 µM; IC50 ([3]; Table 9): 0.1 to 1 µM
O=C(NO)c1cnc(N2C[C@@H]3C[C@H]2CN3c2cccc(C(F)(F)F)c2)cn1 [N-hydroxy-5-((1S,4S)-5-(3-(trifluoromethyl)phenyl)-2,5-diazabicyclo[2.2.1]heptan-2-yl)pyrazine-2-carboxamide] |  |  |  |  |  |  |  |  | IC50 ([2]; Table 9): 5 to 15 µM; IC50 ([3]; Table 9): 0.1 to 1 µM
Cc1ccc(N2CC3CC2CN3c2ccc(C(=O)NO)cn2)cc1 (stereo not shown) [N-hydroxy-6-(5-p-tolyl-2,5-diazabicyclo[2.2.1]heptan-2-yl)nicotinamide] |  |  |  |  |  |  |  |  | IC50 ([2]; Table 9): < 1 µM; IC50 ([3]; Table 9): < 0.05 µM
O=C(NO)c1ccc(N2C[C@@H]3C[C@H]2CN3c2cccc(C(F)(F)F)c2)nn1 [N-hydroxy-6-((1S,4S)-5-(3-(trifluoromethyl)phenyl)-2,5-diazabicyclo[2.2.1]heptan-2-yl)pyridazine-3-carboxamide] |  |  |  |  |  |  |  |  | IC50 ([2]; Table 9): 5 to 15 µM; IC50 ([3]; Table 9): 0.1 to 1 µM
